In patent US10793589B2, “Resorcinarene-based amphipathic compound and use thereof” (Industry-University Cooperation Foundation Hanyang …, priority 2016, dated 2020):
“Also recorded” adds a separate entry of the source. Read-outs that look alike come from different tables or passages of the source.

Experiments:
[1] = Hydrodynamic radius and size distribution of micelles by dynamic light scattering (DLS); assay type: physicochemical; settings: compound 1.0 wt %
Description: A method of measuring the radius of a micelle is not particularly limited and may be any method generally known in the art. For example, the radius may be measured by a dynamic light scattering (DLS) experiment.
(§1) Specifically, critical micelle concentrations (CMCs) were measured using a fluorescence dye, diphenylhexatriene (DPH), and hydrodynamic radii (Rh) of micelles formed of each compound (1.0 wt %) were measured by a dynamic light scattering (DLS) experiment. Measured results are shown in Table 1 in comparison with values of DDM as an existing amphipathic molecule (detergent).
Meanwhile, size distributions of the micelles formed by RGAs and RMAs were measured using DLS.

[2] = system: leucine transporter (LeuT); assay: LeuT structural stability, [3H]-Leu binding by scintillation proximity assay (SPA); assay type: biochemical, Aquifex aeolicus; settings: CMC+0.04 wt % versus CMC+0.2 wt %
Description: (§2) FIGS. 7A and 7B are a set of graphs illustrating a result of measuring the structural stability of a leucine transporter (LeuT) solubilized in RGAs or DDM evaluated at CMC+0.04 wt % (a) or CMC+0.2 wt % (b). Protein stability was determined by measuring the ability of the transporter to bind a radiolabeled ligand ([3H]-Leu) via scintillation proximity assay (SPA). The substrate binding ability of LeuT was measured at regular intervals during 10 days of incubation of the protein at room temperature in the presence of individual amphipathic compounds.
as §2, with “8A” for “7A”, “8B” for “7B”, “RMAs” for “RGAs”
An experiment was carried out to measure the structural stability of a leucine transporter (LeuT) caused by RGAs and RMAs. The concentrations of individual amphipathic compounds were (a) CMC+0.04 wt % or (b) CMC+0.2 wt %, and the substrate binding characteristic of LeuT was measured by scintillation proximity assay (SPA) using [^3H]-Leu. […]
Specifically, wild type LeuT derived from Aquifex aeolicus which is a thermophilic bacterium was purified according to the method described in the paper (Nature 1998, 392, 353-358) written by G. Deckert et al. LeuT was expressed in E. coli C41 (DE3) transformed with pET16b encoding a C-terminal 8×His-tagged transporter (an expression plasmid was provided by Dr. E. Gouaux (Vollum Institute, Portland, Oreg., USA)). […] The protein samples were stored at room temperature for 10 days and centrifuged at designated time points, and protein characteristics were determined by measuring the binding capacity of [^3H]-Leucine using SPA. […]

[3] = target: T1, Salmonella typhimurium melibiose permease (MelB) (Salmonella typhimurium, UniProt P30878); assay: MelB extraction and solubility after 90 min incubation, SDS-PAGE and western blotting; assay type: biochemical; settings: 1.5 wt %
T1 construct: made in house; host or cells: E. coli DW2 (melB and lacZY deleted), plasmid pK95AHB/WT MelBSt/CH10
Description: FIGS. 9A and 9B illustrate a result of measuring the amount of a MelB protein dissolved in an aqueous solution after a MelB protein was extracted at four temperatures (0, 45, 55, and 65) using RGAs or DDM at a concentration of 1.5 wt % and then incubated at the same temperatures for 90 minutes:
RGAs were selected, and an experiment was carried out to measure the structural stability of a Salmonella typhimurium melibiose permease (MelB) caused by RGAs. A MelB protein was extracted from a membrane using RGAs or DDM, and the amount and structure of the protein thus extracted was then analyzed by performing SDS-PAGE and western blotting. In this case, the concentration of the used amphipathic compound was 1.5 wt %. The protein was extracted at four temperatures (0, 45, 55, and 65° C.) and then incubated at the same temperatures for 90 minutes. Subsequently, two kinds of performance of the compound, that is, protein extraction efficiency and protein stability were evaluated at the same time by measuring the amount of a protein which remained dissolved in an aqueous solution. The amount of a protein which was extracted and stabilized by an individual amphipathic molecule was expressed as a relative value (%) with respect to the amount of the entire protein included in a membrane sample not treated with an amphipathic molecule.
Specifically, a C-terminal 10-His-tagged Salmonella typhimurium melibiose permease (MelBSt) was expressed in E. coli DW2 cells (melB and lacZY) using plasmid pK95AHB/WT MelBSt/CH10. Cells were grown and membranes were prepared according to the method described in a paper (Nat. Commun. 2014, 5, 3009) written by A. S. Ethayathulla et al. A protein assay was carried out with a Micro BCA kit (Thermo Scientific, Rockford, Ill.). RGAs and DDM were evaluated to measure the stability of MelBSt according to the protocol described in a paper (Nat. Methods 2010, 7, 1003-1008) written by P. S. Chae et al. The membrane sample (final protein concentration of 10 mg/mL) containing MelBSt was incubated in a solubilization buffer containing 1.5% (w/v) DDM or RGAs (20 mM sodium phosphate, pH 7.5, 200 mM NaCl, 10% glycerol, and 20 mM melibiose) at four temperatures (0, 45, 55, and 65° C.) for 90 minutes. An insoluble material was removed by ultracentrifugation at 355,590 g at 4° C. for 45 minutes using a Beckman Optima™ MAX ultracentrifuge equipped with a TLA-100 rotor. A dissolved portion was separated by SDS-16% PAGE, and immunoblotting was then performed using a Penta-His-HRP antibody (Qiagen, Germantown, Md.). A membrane fraction containing 20 μg of protein without treatment was used to illustrate the overall MelB, and the treated samples were loaded into each well in equal volume. MelBSt was measured using the SuperSignal West Pico Chemiluminescent substrate by ImageQuant LAS 4000 Biomolecular Imager (GE Healthcare Life Sciences).

[4] = Critical micelle concentration by fluorescence dye diphenylhexatriene (DPH); assay type: physicochemical
Description: A method of measuring the CMC is not particularly limited and may be any method generally known in the art. For example, the CMC may be measured according to a fluorescence staining method using diphenylhexatriene (DPH).
as §1

[5] = target: T2, human β2 adrenergic receptor (β2AR) (Homo sapiens, UniProt P07550); assay: Size exclusion chromatography (SEC) of β2AR receptor-detergent complex; settings: 20×CMC detergent
T2 construct: made in house
Description: FIG. 11 illustrates a result of evaluating the size characteristic of a (32AR protein-ligand binding complex formed of RGA-C11, RGA-C13, or DDM via a size exclusion chromatography (SEC) test.
In addition, a size exclusion chromatography (SEC) test was conducted. Specifically, β2AR purified with 0.1% DDM was loaded on a M1 Flag column in the presence of 2 mM CaCl2, and the column was washed with a DDM, RGA-C11 or RGA-C13 detergent buffer (20 mM HEPES pH 7.5, 100 mM NaCl, 0.2% individual amphipathic compound). The receptor was eluted with 20×CMC DDM, RGA-C11, or RGA-C13 with 5 mM EDTA and 0.2 mg/ml free Flag peptide. The eluate was further added to a Superdex-200 10/300 GL column (GE Healthcare) at 0.5 ml/min, and UV absorbance at 280 nm was recorded. The running buffer contained 20 mM HEPES pH 7.5, 100 mM NaCl, 20×CMC individual detergent (DDM, RGA-C11 and RGA-C13).

[6] = target: T2, human β2 adrenergic receptor (β2AR); assay: β2AR stability, [3H]-dihydroalprenolol (DHA) ligand binding assay; assay type: biochemical
Description: (§3) FIGS. 10A and 10B illustrate a result of measuring the effect of RGAs on the stability of β2AR after (a) 0 hour and (b) over time. Protein-ligand binding characteristics were measured via ligand binding assay using [^3H]-dihydroalprenolol (DHA), and the measurement was carried out by sampling a protein sample at regular intervals during 2 days of storage at room temperature.
as §3, with “12A” for “10A”, “12B” for “10B”, “RMAs” for “RGAs”
An experiment was carried out to measure the structural stability of a human (32 adrenergic receptor (β2AR) and a G protein-coupled receptor (GPCR) caused by RGAs and RMAs. That is, a receptor purified with DDM was diluted with a buffer solution containing only each RGA and RMA without cholesteryl hemisuccinate (CHS) or a buffer solution containing CHS and DDM. The final concentration of the compound was CMC+0.2 wt %, and the ligand binding characteristic of the receptor was measured using [^3H]-dihydroalprenolol ([^3H]-DHA) binding.
Specifically, radioligand binding assay was carried out using the following method. β2AR was purified using 0.1% DDM according to the method described in a paper (Science, 2007, 318, 1266-1273.) written by D. M. Rosenbaum et al. and finally concentrated to about 10 mg/ml (about 200 μM). The β2AR purified with DDM was used to prepare a master binding mixture containing 10 nM [^3H]-dihydroalprenolol (DHA) supplemented with 0.5 mg/ml BSA in a 0.2% amphipathic compound (DDM, RGAs or RMAs). The receptor purified with DDM, RGAs or RMAs was incubated with 10 nM [^3H]-DHA at room temperature for 30 minutes. The mixture was loaded into a G-50 column, the flow-through was collected with 1 ml of a binding buffer (20 mM HEPES pH 7.5, 100 mM NaCl, supplemented with 0.5 mg/ml BSA and 20×CMC individual amphipathic compound, and the G-50 column was further filled with 15 ml of a scintillation fluid. Receptor-bound [^3H]-DHA was measured with a scintillation counter (Beckman). The binding capacity of [^3H]-DHA was measured and shown in a column graph. Each experiment was performed in triplicate.

T2 sequence (P07550 whole entry): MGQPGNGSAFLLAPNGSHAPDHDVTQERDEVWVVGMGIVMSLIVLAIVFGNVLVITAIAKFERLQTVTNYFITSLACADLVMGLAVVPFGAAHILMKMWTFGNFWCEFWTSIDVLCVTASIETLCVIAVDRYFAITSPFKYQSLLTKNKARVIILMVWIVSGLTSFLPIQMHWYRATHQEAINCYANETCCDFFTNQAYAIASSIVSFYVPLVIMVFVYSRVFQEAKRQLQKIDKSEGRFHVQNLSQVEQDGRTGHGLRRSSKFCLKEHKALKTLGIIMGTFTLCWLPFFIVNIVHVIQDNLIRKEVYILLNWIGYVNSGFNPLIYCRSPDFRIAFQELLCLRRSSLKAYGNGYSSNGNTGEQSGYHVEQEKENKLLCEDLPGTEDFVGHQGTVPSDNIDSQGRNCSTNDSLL
T1 sequence (P30878 whole entry): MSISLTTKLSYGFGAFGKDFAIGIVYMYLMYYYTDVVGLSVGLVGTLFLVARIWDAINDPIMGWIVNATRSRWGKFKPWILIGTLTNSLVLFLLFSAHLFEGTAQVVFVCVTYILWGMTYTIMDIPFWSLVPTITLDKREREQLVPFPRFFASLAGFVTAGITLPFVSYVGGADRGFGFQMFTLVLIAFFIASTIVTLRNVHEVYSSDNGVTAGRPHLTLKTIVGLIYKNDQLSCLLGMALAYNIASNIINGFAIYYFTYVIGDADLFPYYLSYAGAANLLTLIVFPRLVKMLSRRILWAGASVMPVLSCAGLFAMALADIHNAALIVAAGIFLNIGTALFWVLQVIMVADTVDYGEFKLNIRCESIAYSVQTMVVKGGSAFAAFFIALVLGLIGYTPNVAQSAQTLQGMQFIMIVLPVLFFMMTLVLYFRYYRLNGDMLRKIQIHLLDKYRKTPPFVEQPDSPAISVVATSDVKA

Row | SMILES | Rh (nm), hydrodynamic radius of micelles [1] [nm] | LeuT stabilization as concentration of compound increased [2] | MelB protein extraction/solubilization efficiency ([3]; 0° C.) | MelB protein extraction efficiency and solubility ([3]; 45° C.) | MelB protein extraction ([3]; 65° C.) | CMC [4] [mM] | CMC ([4]; DPH fluorescence) [mM] | CMC (wt %) ([4]; DPH fluorescence) | size of receptor-detergent complex [5] | MelB protein extraction efficiency and solubility ([3]; 55° C.) | maintaining the ligand binding characteristic of the receptor compared to DDM ([6]; 0 hour, CMC+0.2 wt %, [3H]-DHA) | ability to maintain the ligand binding of the receptor over time compared to DDM ([6]; 2 days at room temperature, early stage (0 to 12 h))
1 | CCCCCCCCCCCCO[C@@H]1O[C@H](CO)[C@@H](O[C@H]2O[C@H](CO)[C@@H](O)[C@H](O)[C@H]2O)[C@H](O)[C@H]1O [DDM, n-dodecyl-β-D-maltopyranoside, reference compound] | 3.4 ± 0.0 | constant structural collapse of the solubilized transporter | high MelB protein extraction efficiency | high MelB protein extraction efficiency | hardly extracted | 0.17 | 0.17 | 0.0087 | – | – | – | –
2 | CCCCCCCCCC[C@H]1c2cc(c(OCCO[C@@H]3OC(CO)[C@@H](O)[C@H](O)C3O)cc2OCCO[C@@H]2OC(CO)[C@@H](O)[C@H](O)C2O)[C@H](CCCCCCCCCC)c2cc(c(OCCO[C@@H]3OC(CO)[C@@H](O)[C@H](O)C3O)cc2OCCO[C@@H]2OC(CO)[C@@H](O)[C@H](O)C2O)[C@@H](CCCCCCCCCC)c2cc(c(OCCO[C@@H]3OC(CO)[C@@H](O)[C@H](O)C3O)cc2OCCO[C@@H]2OC(CO)[C@@H](O)[C@H](O)C2O)[C@@H](CCCCCCCCCC)c2cc1c(OCCO[C@@H]1OC(CO)[C@@H](O)[C@H](O)C1O)cc2OCCO[C@@H]1OC(CO)[C@@H](O)[C@H](O)C1O (some centres unmarked) [RGA-C11] | 6.8 ± 0.2 | – | – | – | – | – | – | ~0.0081 | significantly smaller than that formed of DDM | maintained MelB solubility better than DDM; also recorded: higher protein extraction efficiency than DDM | superior to DDM | superior ability to maintain the ligand binding of the receptor compared to DDM
